What was measured:
TOM20 ubiquitylation = assay: TOM20-ubiquitylation assay (western blot of cell lysates); format: cell-based, Human; details: antimycin A/oligomycin mitophagy trigger, concentration for 1.5-fold gain of TOM20-Ub
Description: TOM20-Ubiquitylation Assay Human cell lines can be challenged with mitochondrial depolarizing agents (ionophores (eg. CCCP, valinomycin), mitochondrial complex inhibitors (oligomycin, antimycin A)) to induce ubiquitylation of TOM20, which is then further promoted in the presence of USP30 inhibitors. TOM20 ubiquitylation is subsequently assessed through western blotting of the cell lysates, with TOM20 ubiquitylation adduct detection possible due to an 8 kDa molecule weight increase for each molecule of ubiquitin added, resulting in laddering of a TOM20 immunoreactive band. TOM20-ubiquitylation levels can be quantified using chemiluminescence densitometry of laddered immunoreactive bands.

USP30 = USP30 (Homo sapiens (Human), UniProt Q70CQ3); assay: USP30 biochemical IC50 assay (fluorescence polarisation); details: geomean; USP30 4 nM, 30 min pre-incubation, TAMRA-peptide-ubiquitin FP substrate
Chain of USP30 (Q70CQ3 57-517): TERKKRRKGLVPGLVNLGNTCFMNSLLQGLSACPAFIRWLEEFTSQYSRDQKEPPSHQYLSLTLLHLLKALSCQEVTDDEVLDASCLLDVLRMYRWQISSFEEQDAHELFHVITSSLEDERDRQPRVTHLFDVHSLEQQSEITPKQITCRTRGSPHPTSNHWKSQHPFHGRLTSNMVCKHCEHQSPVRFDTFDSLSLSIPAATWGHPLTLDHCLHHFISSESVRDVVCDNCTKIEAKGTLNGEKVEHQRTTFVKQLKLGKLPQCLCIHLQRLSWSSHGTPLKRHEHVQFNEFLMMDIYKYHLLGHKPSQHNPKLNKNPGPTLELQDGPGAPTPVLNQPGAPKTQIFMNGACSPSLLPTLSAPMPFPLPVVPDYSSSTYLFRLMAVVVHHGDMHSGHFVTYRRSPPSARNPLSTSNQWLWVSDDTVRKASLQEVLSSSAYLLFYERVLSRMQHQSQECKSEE
Description: Dilution plates were prepared at 21 times the final concentration (2100 μM for a final concentration of 100 μM) in 50% DMSO in a 96-well polypropylene V-bottom plate (Greiner #651201). A typical 8-point dilution series would be 100, 30, 10, 3, 1, 0.3, 0.1, 0.03 μM final. Reactions were performed in duplicate in black 384 well plates (small volume, Greiner 784076) in a final reaction volume of 21 μl.
Either lpl of 50% DMSO or diluted compound was added to the plate. USP30 (Boston Biochem #E582) was diluted in reaction buffer (40 mM Tris, pH 7.5, 0.005% Tween 20, 0.5 mg/ml BSA, 5 mM beta-mercaptoethanol) to achieve a final assay concentration of 4 nM, and 10 μl of diluted USP30 was added to the compound. Enzyme and compound were incubated for 30 min at room temp. Reactions were initiated by the addition of 50 nM of TAMRA labelled peptide linked to ubiquitin via an isopeptide bond as fluorescence polarisation substrate. Reactions were read immediately after addition of substrate and following a 2-hour incubation at room temperature. Readings were performed on a Pherastar Plus (BMG Labtech). λ Excitation 540 nm; λ Emission 590 nm.

Row | Structure (SMILES) | IC50 (USP30) | EC1.5x (Geomean, nM); TOM20-Ub 1.5-fold gain (TOM20 ubiquitylation)
1 | N#Cc1ccc(C2CC2)c(-c2nnc(C(=O)N(C3CC3)[C@@H]3C[C@@H](Cn4ccnn4)N(C#N)C3)o2)c1 [Example 2, N-((3R,5S)-5-((1H-1,2,3-Triazol-1-yl)methyl)-1-cyanopyrrolidin-3-yl)-5-(5-cyano-2-cyclopropylphenyl)-N-cyclopropyl-1,3,4-oxadiazole-2-carboxamide] | 11 nM | 15 nM
2 | COc1ccccc1-c1cnc(C(=O)N[C@@H]2C[C@@H](Cn3ccnn3)N(C#N)C2)o1 [Example 6, N-((3R,5S)-5-((1H-1,2,3-Triazol-1-yl)methyl)-1-cyanopyrrolidin-3-yl)-5-(2-methoxyphenyl)oxazole-2-carboxamide] | 23 nM | 180 nM
3 | N#CN1C[C@H](NC(=O)c2ncc(-c3ccccc3C3CC3)o2)C[C@H]1Cn1ccnn1 [Example 8, N-((3R,5S)-5-((1H-1,2,3-Triazol-1-yl)methyl)-1-cyanopyrrolidin-3-yl)-5-(2-cyclopropylphenyl)oxazole-2-carboxamide] | 14 nM | 41 nM
4 | N#CN1C[C@H](NC(=O)c2ncc(-c3cccc(C4CC4)c3)o2)C[C@H]1Cn1ccnn1 [Example 12, N-((3R,5S)-5-((1H-1,2,3-Triazol-1-yl)methyl)-1-cyanopyrrolidin-3-yl)-5-(3-cyclopropylphenyl)oxazole2-carboxamide] | 8 nM | 25 nM
5 | N#Cc1ccc(OC2COC2)c(-c2cnc(C(=O)N(C3CC3)[C@@H]3C[C@@H](Cn4ccnn4)N(C#N)C3)o2)c1 [Example 16, N-((3R,5S)-5-((1H-1,2,3-Triazol-1-yl)methyl)-1-cyanopyrrolidin-3-yl)-5-(5-cyano-2-(oxetan-3-yloxy)phenyl)-N-cyclopropyloxazole-2-carboxamide] | 28 nM | 950 nM
6 | N#CN1C[C@H](NC(=O)c2cc(-c3cccc(C(F)(F)F)c3)ccn2)C[C@H]1Cn1ccnn1 [Example 24, N-((3R,5S)-5-((1H-1,2,3-Triazol-1-yl)methyl)-1-cyanopyrrolidin-3-yl)-4-(3-(trifluoromethyl)phenyl)picolinamide] | 9 nM | 620 nM
7 | N#Cc1cccc(-c2cnc(C(=O)N[C@@H]3C[C@@H](Cn4cccn4)N(C#N)C3)o2)c1 [Example 26, N-((3R,5S)-5-((1H-Pyrazol-1-yl)methyl)-1-cyanopyrrolidin-3-yl)-5-(3-cyanophenyl)oxazole-2-carboxamide] | 5 nM | 14 nM
8 | N#CN1C[C@H](NC(=O)c2ncc(-c3cccc(C(F)(F)F)c3)o2)C[C@H]1Cn1cccn1 [Example 30, N-((3R,5S)-5-((1H-Pyrazol-1-yl)methyl)-1-cyanopyrrolidin-3-yl)(3(trifluoromethyl)phenyl)oxazole-2-carboxamide] | 11 nM | 14 nM
9 | N#Cc1ccc(C2CC2)c(-c2nnc(C(=O)N[C@@H]3C[C@@H](Cn4cccn4)N(C#N)C3)o2)c1 [Example 46, N-((3R,5S)-5-((1H-Pyrazol-1-yl)methyl)-1-cyanopyrrolidin-3-yl)-5-(5-cyano-2-cyclopropylphenyl)-1,3,4-oxadiazole-2-carboxamide] | 9 nM | 19 nM

Second part, led by results:

Row | IC50 (USP30) | Structure (SMILES) | EC1.5x (Geomean, nM); TOM20-Ub 1.5-fold gain (TOM20 ubiquitylation)
10 | 2 nM | N#Cc1cccc(-c2cnc(C(=O)N[C@@H]3C[C@@H](Cn4ccnn4)N(C#N)C3)o2)c1 [Example 3, N-((3R,5S)-5-((1H-1,2,3-Triazol-1-yl)methyl)-1-cyanopyrrolidin-3-yl)-5-(3-cyanophenyl)oxazole-2-carboxamide] | 8 nM
11 | 4 nM | N#CN1C[C@H](NC(=O)c2ncc(-c3cccc(Cl)c3)o2)C[C@H]1Cn1ccnn1 [Example 5, N-((3R,5S)-5-((1H-1,2,3-Triazol-1-yl)methyl)-1-cyanopyrrolidin-3-yl)-5-(3-chlorophenyl)oxazole-2-carboxamide] | 9 nM
12 | 5 nM | N#CN1C[C@H](NC(=O)c2nnc(-c3cc(OC(F)(F)F)ccc3C3CC3)o2)C[C@H]1Cn1ccnn1 [Example 13, N-((3R,5S)-5-((1H-1,2,3-Triazol-1-yl)methyl)-1-cyanopyrrolidin-3-yl)-5-(2-cyclopropyl-5-(trifluoromethoxy)phenyl)-1,3,4-oxadiazole-2-carboxamide] | 6 nM
13 | 4 nM | N#Cc1cccc(-c2cnc(C(=O)N[C@@H]3C[C@@H](Cn4nccn4)N(C#N)C3)o2)c1 [Example 17, N-((3R,5S)-5-((2H-1,2,3-Triazol-2-yl)methyl)-1-cyanopyrrolidin-3-yl)-5-(3-cyanophenyl)oxazole-2-carboxamide] | 16 nM
14 | 2 nM | N#Cc1cccc(-c2cnc(C(=O)N[C@@H]3C[C@@H](Cn4cncn4)N(C#N)C3)o2)c1 [Example 18, N-((3R,5S)-5-((1H-1,2,4-Triazol-1-yl)methyl)-1-cyanopyrrolidin-3-yl)-5-(3-cyanophenyl)oxazole-2-carboxamide] | 16 nM
